Patent publication US20220251095A1, “TRICYCLIC COMPOUND, PREPARATION METHOD THEREFOR AND USE THEREOF” (SHANGHAI JEMINCARE PHARMACEUTICALS CO., LTD., priority 2019, published 2022)

What was measured:
[1] = target: T1, coagulation factor XIa protease (FXIa) (Homo sapiens, UniProt P03951); test: Inhibition of coagulation factor XIa (FXIa), chromogenic substrate, absorbance at 405; format: biochemical; settings: FXIa 0.05 μg/mL, substrate 2.5 mM, 37° C. 15 minutes
T1 construct: purchased Abcam ab62411
T1 sequence (P03951 388-625 limits assumed): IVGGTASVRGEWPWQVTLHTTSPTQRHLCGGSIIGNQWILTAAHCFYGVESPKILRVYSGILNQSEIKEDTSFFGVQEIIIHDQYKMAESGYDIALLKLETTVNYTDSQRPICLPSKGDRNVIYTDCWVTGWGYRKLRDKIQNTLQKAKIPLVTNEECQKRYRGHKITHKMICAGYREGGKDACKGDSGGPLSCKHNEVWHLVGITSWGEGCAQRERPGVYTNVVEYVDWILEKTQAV
T1 sequence (P03951 19-387 partner limits assumed): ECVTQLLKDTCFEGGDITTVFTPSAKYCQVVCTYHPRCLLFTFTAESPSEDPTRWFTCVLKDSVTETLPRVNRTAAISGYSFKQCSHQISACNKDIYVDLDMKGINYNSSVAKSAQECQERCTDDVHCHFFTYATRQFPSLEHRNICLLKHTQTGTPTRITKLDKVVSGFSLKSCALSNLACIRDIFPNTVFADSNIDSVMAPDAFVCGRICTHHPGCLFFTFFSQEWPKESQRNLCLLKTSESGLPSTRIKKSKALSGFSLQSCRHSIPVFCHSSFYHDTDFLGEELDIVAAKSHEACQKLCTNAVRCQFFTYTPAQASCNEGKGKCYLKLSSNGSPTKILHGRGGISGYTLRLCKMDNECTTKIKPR
Description: Coagulation factor XIa protease (FXIa) decomposed the specific substrate to produce yellow p-nitroaniline (pNA), pNA had strong absorption at 405 nm. The inhibitory activity of the compounds on coagulation factor XIa was determined by assaying the absorbance of the compounds at […].
The coagulation factor XIa protease used in the experiment was purchased from Abcam Company, Item No. ab62411; the coagulation factor XIa-specific substrate was purchased from HYPHEN BioMed, Item No. Biophen cs-21 (66); tris-HCl was purchased from Invitrogen, Item No. 15567-027; NaCl was purchased from ABCONE, Item No. S39168; Twain 20 was purchased from Amersco, Item No. 0777-1L.
(§1) The compounds were dissolved in 100% DMSO, 20 mM, and stored at room temperature in a nitrogen cabinet.
a. 20 mM of the tested compound was diluted to 2 mM using 100% DMSO, and the reference compound was diluted to 0.4 mM; the compound was continuously diluted with a 3-fold gradient at 10 concentration points using a Bravo liquid workstation.
b. The ECHO liquid workstation was used to transfer 10 nL of compound to the corresponding 384-well experimental plate with double replicate wells; the final concentrations of compound reactions were 1000, 333.3, 111.1, 37.0, 12.3, 4.1, 1.37, 0.46, 0.15, and 0.05 nM. The final concentrations of reference compounds were 200, 66.7, 22.2, 7.4, 2.47, 0.82, 0.27, 0.09, 0.03, 0.01 nM.
c. 10 nL DMSO and 10 nL 0.4 mM reference compounds were transferred to high signal control pores and low signal control pores respectively.
d. 0.1 μg/mL FXIa enzyme solution was prepared with buffer solution, and 10 μL enzyme solution was added to 384-well experimental plate, 5 mM substrate solution was prepared using buffer solution, and […] substrate solution was added to a 384-well experimental plate. The final concentration of FXIa was 0.05 μg/mL and the final concentration of the substrate was 2.5 mM.
e. The 384-hole experimental plate was centrifuged and incubated at 37° C. for 15 minutes.
f. The absorbance was measured at 405 nm using EnVision.

human plasma = test: Anticoagulant effect on human blood in vitro (APTT clotting time, CT2.0); settings: final concentration of compound corresponding to aPTT of the 2-fold blank control
Description: Activated partial thromboplastin time (APTT) measurement reagent was mixed with plasma and the reaction was carried out continuously resulting in a change in optical density up to the clotting point, and the clotting time (CT) was measured by optical turbidimetry using a semi-automatic coagulation analyzer. The in vitro anticoagulant activity of compounds on human blood was determined by detecting the clotting time of plasma treated with different concentrations of compounds, and the corresponding concentration of compounds prolonging clotting time was calculated.
Human plasma used in the experiment was purchased from HD Biosciences (Shanghai) Co., Ltd.; Activated partial thromboplastin time determination kit was purchased from Taizhou Zhongqin Shidi Biotechnology Co., Ltd., Item No. SS00220005.
as §1
a. The NaCl reagent in the kit was incubated half an hour in advance, and the APTT reagent was balanced to room temperature.
b. The compound was continuously diluted at 14 concentration points using a Bravo liquid workstation with a 2-fold gradient.
c. 0.75 μL of the compound was added to the measuring cup, double-replicate wells; 50 μL of plasma was added and 50 μL of APTT reagent was added, the mixture was mixed well and put into coagulation analyzer for incubation at 37° C. for 3 minutes.
d. APTT assay was started, 50 μL of NaCl was added to start the reaction, and the clotting time was counted.
e. Control clotting time was measured using 100% DMSO instead of the compound, and the final concentration of DMSO was 0.5%.
Data were curve-fitted using Graphpad Prism to calculate CT2.0, the final concentration of compound corresponding to aPTT of the 2-fold blank control was calculated.

[2] = Pharmacokinetic experiment in rats, intravenous injection and oral administration; format: in vivo; settings: male Sprague Dawley rats; for F: intragastric administration 2 mg/kg vs intravenous 1 mg/kg; for AUC(0-inf) / Cmax / half-life / clearance / Vd: rat, plasma; for Vd: read-out: Vz
Description: In this experimental embodiment, in vivo pharmacokinetic evaluation was performed in rats by intravenous injection and oral administration.
Experimental methods and conditions: Male Sprague Dawley rats were given the test compound 1 mg/Kg (intravenous injection, solvent 5% DMSO/10% Solutol/85% Saline) and 2 mg/Kg (intragastric administration, solvent 0.5% MC) by respectively; 5 min, 15 min, 30 min, 1 hr, 2 hr, 4 hr, 6 hr, 8 hr, 24 hr after administration, blood was collected from submandibular vein, 0.20 mL was collected from each sample , and heparin sodium was used for anticoagulation. After collection, the sample was placed on ice, and the plasma was centrifuged to be measured within 1 hour. Plasma drug concentration in plasma was detected by liquid chromatography tandem mass spectrometry (LC/MS/MS) to calculate pharmacokinetic parameters.

[3] = po, intragastric administration 2 mg/kg
[4] = intravenous administration 1 mg/kg

SMILES | IC50 [1] [nM] | CT2.0 (human plasma) [µM] | F [2] [%] | AUC(0-inf) [2, 3] [ng·h/mL] | Cmax [2, 3] [ng/mL] | half-life [2, 3] [h] | AUC(0-inf) [2, 4] [ng·h/mL] | clearance [2, 4] [mL/min/kg] | half-life [2, 4] [h] | Vd [2, 4] [L/kg]
Nc1ccc(-c2nc(F)c([C@@H]3[C@H]4C[C@H]4c4cc(-c5cc(Cl)ccc5-n5cnnn5)cc(=O)n43)[nH]2)c(F)n1 [Embodiment 36] | 3.34 | 0.42 | 25.32 | 3310 | 709 | 1.63 | 6530 | 2.66 | 1.65 | 0.349
O=C1CCc2c(ccc(-c3cnc([C@@H]4[C@H]5C[C@H]5c5nc(-c6cc(Cl)ccc6-n6cc(Cl)nn6)cc(=O)n54)[nH]3)c2F)N1 [Embodiment 90] | 6.33 | 0.63 | 28.4 | 17600 | 1830 | 3.16 | 26900 | 0.63 | 3.41 | 0.18
Nc1n[nH]c2c(F)c(-c3cnc([C@@H]4[C@H]5C[C@H]5c5cc(-c6cc(Cl)ccc6-n6cnnn6)cc(=O)n54)[nH]3)ccc12 [Embodiment 86] | 0.31 | 0.20 | – | – | – | – | – | – | – | –
Nc1noc2cc(-c3[nH]c([C@@H]4[C@H]5C[C@H]5c5cc(-c6cc(Cl)ccc6-n6cc(Cl)nn6)cc(=O)n54)nc3F)ccc12 [Embodiment 69] | 0.36 | 0.86 | – | – | – | – | – | – | – | –
Nc1n[nH]c2cc(-c3[nH]c([C@@H]4[C@H]5C[C@H]5c5cc(-c6cc(Cl)ccc6-n6cc(C(F)F)nn6)cc(=O)n54)nc3F)ccc12 [Embodiment 83] | 0.83 | 0.82 | – | – | – | – | – | – | – | –
Nc1ccc(-c2cnc([C@@H]3[C@H]4C[C@H]4c4cc(-c5cc(Cl)ccc5-n5cnnn5)cc(=O)n43)[nH]2)c(F)n1 [Embodiment 1] | 6.5 | 1.72 | – | – | – | – | – | – | – | –
O=C1CCc2cc(-c3cnc([C@@H]4[C@H]5C[C@H]5c5cc(-c6cc(Cl)ccc6-n6cnnn6)cc(=O)n54)[nH]3)ccc2N1 [Embodiment 16] | 4.74 | 0.63 | – | – | – | – | – | – | – | –
O=C1CCc2cc(-c3[nH]c([C@@H]4[C@H]5C[C@H]5c5cc(-c6cc(Cl)ccc6-n6cnnn6)cc(=O)n54)nc3F)ccc2N1 [Embodiment 17] | 0.83 | 0.54 | – | – | – | – | – | – | – | –
